How the values were obtained:
[1] = system: HER-2/neu positive breast cancer; experiment: Example I: adjuvant therapy after mastectomy; format: in vivo, human; conditions: patient, oral 5 mg/kg twice per day for five years after mastectomy
EGFR transcription = experiment: nuclear run-off assay of EGFR transcription in 184B5 cells; format: cell-based, human; conditions: ciglitazone 5, 10, 25 μM, 24 hours
Protocol: To determine whether PPARγ ligands inhibit the transcription of EGFR, a nuclear run-off assay was carried out. 184B5 cells were treated with vehicle (0.01% dimethyl sulfoxide) or ciglitazone (5, 10, 25 μM) for 24 hours. 2.5×10^5 cells were plated in four T150 dishes for each condition. Cells were grown in growth medium until 60% confluent. Nuclei were isolated and stored in liquid nitrogen. The EGFR and 18S rRNA cDNAs were immobilized onto a nitrocellulose membrane (Schleicher & Schuell, Keene, N.H.) and prehybridized overnight in hybridization buffer.

[2] = system: EGFR positive breast cancer; experiment: Example IX: adjuvant therapy after mastectomy; format: in vivo, human; conditions: patient, oral 5 mg/kg twice daily for five years after mastectomy
[3] = system: EGFR in 184B5 mammary epithelial cells; experiment: immunoblot for EGFR in 184B5 cells; format: cell-based, human; conditions: ciglitazone 5-30 μM or 15-d-PGJ2 5, 10 μM, 24 hours
Protocol: The cells used were 184B5 cells. The 184B5 cell line was obtained from a collaborator and is an immortalized but non-tumorigenic human breast epithelial cell line that was established from a reduction mammaplasty and is described in Stampler, M. R, et al, Proc. Natl. Acad. Sci. USA 82, 2394-2398 (1985).
(§1) 184B5 cells were maintained in MEM-KBM mixed in a ratio of 1:1 (basal medium) containing epidermal growth factor (10 ng/ml), hydrocortisone (0.5 μg/ml), transferrin (10 μg/ml), gentamicin (5 μg/ml), and insulin (10 μg/ml) (growth medium). 184B5 cells were grown to 60% confluence, trypsinized with 0.05% trypsin-2 mM ethylenediaminotetraacetic acid and plated for experimental use.
184B5 cells were treated with vehicle (0.01% dimethyl sulfoxide), ciglitazone (5, 10, 20, 30 μM) or 15-d-PGJ2 (5, 10 μM) for 24 hours. Cell lysates were prepared in RIPA buffer. Lysates were sonicated for 20 seconds on ice and centrifuged at 10,000×g for 10 minutes to sediment the particulate material. The protein concentration of the supernatant was measured by the method of Lowry,. O. H., et al, J. Biol. Chem. 193, 265-275 (1951). Cellular lysate protein (100 μg/lane) was loaded onto a 10% SDS-polyacrylamide gel, electrophoresed and subsequently transferred onto a nitrocellulose membrane(Schleicher & Schuell Keene, N. H.). […]

[4] = system: HER-2/neu positive breast cancer metastasized to bone; experiment: Example IV: breast cancer metastasized to bone; format: in vivo, human; conditions: patient after failure of prior chemotherapy, oral 5 mg/kg twice daily plus HERCEPTIN
Protocol: After 90 days, oral cyclophosphamide at a dose of 3 mg/kg/day and doxorubicin administered intravenously weekly at a dose of 20 mg/m^2, are added to the drug regimen.

HER-2/neu in BT474 cells = experiment: immunoblot for HER-2/neu in BT474 cells; format: cell-based, human; conditions: 25 μM ciglitazone
Excerpt: The 184B5/HER cell line was obtained from a collaborator and was derived by stably transfecting 184B5 cells with a mutationally activated HER-2/neu oncogene; these cells form rapidly growing tumors when injected into athymic nude mice. The 184B5/HER cell line is described in Pierce, J. H., et al., Oncogene 6, 1189-1194 (1991). The BT-474 cell line is a human breast cancer adenocarcinoma cell line which overexpresses HER-2/neu, and was obtained from the American Type Culture Collection (Manassas, Va.) and bears accession number ATCC HBT-20.
as §1, with “184B5/HER cells” for “184B5 cells”, “(5 μg/ml)” for “(5 μg/ml),”, “medium). […]” for “medium). 184B5”, “ethylenediaminotetraacetic acid,” for “ethylenediaminotetraacetic acid”, “use. […]” for “use.”
184B5/HER cells were treated with vehicle (0.01% dimethylsulfoxide), 25 μM ciglitazone (Biomol, Plymouth Meeting, Pennsylvania) or 20 μM 15-d-PGJ2 (Biomol, Plymouth Meeting, Pennsylvania) for 24 hours. […] The protein concentration of the supernatant was measured by the method of Lowry, O. H., et al, J. Biol. Chem. 193, 265-275 (1951). […]

EGFR promoter = experiment: transient transfection assay, human EGFR promoter construct ligated to luciferase, 184B5 cells; format: cell-based; conditions: 0-25 μM, 24 hours, FIG. 2
Protocol: To determine whether PPARγ ligands inhibit EGFR promoter activity, a transient transfection assay was performed, 184B5 cells were transfected with 1.8 μg of a human EGFR promoter construct ligated luciferase (-1100/-19) and 0.2 μg pSVβgal (Promega Corp., Madison, Wis.). The EGFR promoter is described in Hudson, L. G., et al, Cell 62, 1165-1175 (1990), the whole of which is incorporated herein by reference. 184B5 cells were seeded at a density of 5×10^4 cells/well in 6-well dishes and grown to 50-60% confluence. For each well 2 μg of […] DNA were introduced into cells using 8 μg of LIPOFECTAMINE (Life Technologies, Inc., Grand Island, N.Y.) as per the manufacturers instructions. Following transfection, the cells were treated with ciglitazone (0, 5, 10, 15, 20 and 25 μM) or 15-d-PGJ2 (0, 5, 10, 15, 20, and 25 μM) for 24 hours. The activities of luciferase and β-galactosidase were measured in cellular extract as described in Mestre, J. R, et al, Cancer Res. 57, 1081-1085 (1997). The results are shown in FIG. 2 where luciferase activity represents data that have been normalized to β-galactosidase activity (columns, means; bars, S. D., n=6; * means p<0.01 compared to control).

## CC1(COc2ccc(CC3SC(=O)NC3=O)cc2)CCCCC1 (stereo not shown) [ciglitazone]
[1]
  recurrence of breast cancer: Recurrence of breast cancer does not occur
EGFR transcription
  EGFR transcription (nuclear run-off): dose-dependent suppression of EGFR transcription
[2]
  recurrence of breast cancer: Recurrence of breast cancer dose not occur
[3]
  amounts of EGFR (immunoblot): decreased amounts of EGFR
[4]
  tumor burden: reduced tumor burden
HER-2/neu in BT474 cells
  amounts of HER-2/neu (immunoblot): decreased amounts of HER-2/neu
EGFR promoter
  EGFR promoter activity (luciferase normalized to β-galactosidase): inhibited EGFR promoter activity in a dose-dependent fashion

From patent US6291496A, “Treating cancers associated with overexpression of class I family of receptor tyrosine kinases” (priority 1999, dated 2001)
